The results in this text go back to ChEMBL document CHEMBL4616653, “Naphthacemycins from a Streptomyces sp. as Protein-Tyrosine Phosphatase Inhibitors” (J Nat Prod, 2020).

The target in this test is T1, Tyrosine-protein phosphatase non-receptor type 1 (Homo sapiens, UniProt P18031).
T1 sequence (P18031 whole entry): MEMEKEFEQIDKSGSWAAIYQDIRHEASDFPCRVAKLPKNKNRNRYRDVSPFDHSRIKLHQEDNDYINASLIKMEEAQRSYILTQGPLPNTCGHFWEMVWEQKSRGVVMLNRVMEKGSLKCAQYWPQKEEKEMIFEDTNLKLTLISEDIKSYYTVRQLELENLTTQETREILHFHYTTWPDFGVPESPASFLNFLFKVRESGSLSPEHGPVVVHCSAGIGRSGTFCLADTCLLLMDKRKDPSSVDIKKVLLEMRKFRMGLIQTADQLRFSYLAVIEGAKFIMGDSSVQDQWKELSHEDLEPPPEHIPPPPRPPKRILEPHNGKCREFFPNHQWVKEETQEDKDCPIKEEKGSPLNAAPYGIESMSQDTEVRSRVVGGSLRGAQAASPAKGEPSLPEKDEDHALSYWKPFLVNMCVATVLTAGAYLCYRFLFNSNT
Description: Inhibition of recombinant human PTP1B expressed in Escherichia coli using pNPP as substrate preincubated for 15 mins followed by substrate addition and measured after 60 mins.

Turning to `COc1cc(O)c(Cl)c(C)c1-c1cc(O)cc2cc3c(c(O)c12)C(=O)c1c(O)c(Cl)c(O)c(Cl)c1C3(C)C`, the IC50 was 2.11 µM.
The value for `COc1cc(O)c(Cl)c(C)c1-c1cc(O)c(Br)c2cc3c(c(O)c12)C(=O)c1c(O)cc(O)cc1C3(C)C` was 2.62 µM.
In the case of `COc1cc(O)c(Cl)c(C)c1-c1cc(O)cc2cc3c(c(O)c12)C(=O)c1c(cc(O)c(Cl)c1O)C3(C)C` it was 2.7 µM; in that of `COc1cc(O)cc(C)c1-c1cc(O)cc2cc3c(c(O)c12)C(=O)c1c(cc(O)c(Cl)c1O)C3(C)C`, 7.69 µM; in that of `COc1cc(O)c(Cl)c(C)c1-c1cc(O)c(Cl)c2cc3c(c(O)c12)C(=O)c1c(cc(O)c(Cl)c1O)C3(C)C`, 8.27 µM.
The value for `COc1cc(O)c(Cl)c(C)c1-c1cc(O)cc2cc3c(c(O)c12)C(=O)c1c(O)cc(O)cc1C3(C)C` was 3.38 µM.
Consider `COc1c(Cl)c(O)c(Cl)c(C)c1-c1cc(O)c(Cl)c2cc3c(c(O)c12)C(=O)c1c(O)c(Cl)c(O)c(Cl)c1C3(C)C`, for which the concentration for half-maximal inhibition (IC50) was 0.34 µM.
The value for `COc1cc(O)c(Cl)c(C)c1-c1cc(O)c(Cl)c2cc3c(c(O)c12)C(=O)c1c(O)c(Cl)c(O)c(Cl)c1C3(C)C` was 2.81 µM.
